Values quoted from earlier work as cited in patent publication US8394428B1, “Formulations and methods for preventing eyebrow hair loss” (RMV Trademarks, LLC, priority 2010, dated 2013).

Tested on: hair loss in human scalp
Settings: topical application, after administration of cyclophosphamide

With `C=C1/C(=C\C=C2/CCC[C@]3(C)[C@@H]([C@H](C)CCCC(C)(C)O)CC[C@@H]23)C[C@@H](O)C[C@@H]1O` [1,25-dihydroxyvitamin D3] as the molecule, how does the “Prevention or retardation of hair loss” value read?
The value was “failed to prevent or retard hair loss”.
